Assay results from PubChem BioAssay (NCI).
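These data come from cells grown in 96-well plates and exposed to compound for 48 hours at five concentrations. GI50 is the concentration that inhibits growth by half. Definition used: TGI = concentration required for complete inhibition of growth.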

Columns and labels:
Assay in all cases: NCI tumour cell line growth inhibition, 48 h
[1] = test system: DU-145 prostate
[2] = test system: HOP-62 NSCLC
[3] = test system: MCF7 breast
[4] = test system: NCI-H23 lung
[5] = test system: NCI-H522 lung
[6] = test system: OVCAR-4 ovarian
[7] = test system: SF-268 CNS
[8] = test system: SW-620 colon
[9] = test system: HT29 colon
[10] = test system: NCI-H226 lung

Structure (SMILES): CCCN=C1NC(C)=CSC(Nc2ccccc2)=C1C#N
- TGI [1]: > 100 µM
- TGI [2]: > 100 µM
- TGI [3]: > 100 µM
- TGI [4]: > 100 µM
- TGI [5]: > 100 µM
- TGI [6]: > 100 µM
- TGI [7]: > 100 µM
- TGI [8]: > 100 µM

Structure (SMILES): Cc1ccc(C)n1-c1ccccc1C1C=Cn2c(=O)oc3c(OC(C)C)c(OC(C)C)c(O)c1c32 (configuration not stated)
- TGI [1]: > 100 µM
- TGI [2]: > 100 µM
- TGI [9]: > 100 µM
- TGI [3]: > 100 µM
- TGI [10]: 36.1 µM
- TGI [4]: > 100 µM
- TGI [5]: 75.5 µM
- TGI [6]: > 100 µM
- TGI [7]: > 100 µM
- TGI [8]: 75.6 µM

Structure (SMILES): OCc1ccc2c(c1)CC1(Cc3ccccc3C1)C2
- TGI [1]: > 100 µM
- TGI [2]: > 100 µM
- TGI [9]: 33.6 µM
- TGI [10]: > 100 µM
- TGI [4]: 82.3 µM
- TGI [5]: 72.1 µM
- TGI [6]: > 100 µM
- TGI [7]: 40.9 µM
- TGI [8]: 39 µM

Structure (SMILES): CSc1nnnc2ccccc12
- TGI [1]: > 100 µM
- TGI [2]: > 100 µM
- TGI [9]: > 100 µM
- TGI [3]: > 100 µM
- TGI [10]: > 100 µM
- TGI [4]: > 100 µM
- TGI [5]: > 100 µM
- TGI [6]: > 100 µM
- TGI [7]: > 100 µM
- TGI [8]: > 100 µM

Structure (SMILES): NS(=O)(=O)c1ccc(-c2ccc([As](=O)(O)O)cc2)cc1
- TGI [1]: > 100 µM
- TGI [2]: > 100 µM
- TGI [9]: > 100 µM
- TGI [3]: > 100 µM
- TGI [10]: > 100 µM
- TGI [4]: > 100 µM
- TGI [5]: > 100 µM
- TGI [6]: > 100 µM
- TGI [7]: > 100 µM
- TGI [8]: > 100 µM

Structure (SMILES): CCOc1ccc2c(c1)C(/C(C(Cl)=C(Cl)Cl)=[N+](/[O-])OC(=O)c1ccccc1)=N2
- TGI [1]: > 100 µM
- TGI [2]: > 100 µM
- TGI [9]: > 100 µM
- TGI [3]: > 100 µM
- TGI [10]: > 100 µM
- TGI [4]: > 100 µM
- TGI [5]: > 100 µM
- TGI [6]: > 100 µM
- TGI [7]: > 100 µM
- TGI [8]: > 100 µM

Structure (SMILES): [N-]=[N+]=Nc1cc(=O)[nH]c2ccccc12
- TGI [2]: > 100 µM
- TGI [9]: > 100 µM
- TGI [3]: > 100 µM
- TGI [10]: > 100 µM
- TGI [4]: > 100 µM
- TGI [5]: > 100 µM
- TGI [6]: > 100 µM
- TGI [7]: > 100 µM
- TGI [8]: > 100 µM

Structure (SMILES): CCOC(=O)Cc1[nH]c(C(=O)c2ccccc2)cc1C(=O)c1ccccc1
- TGI [1]: > 10 µM
- TGI [2]: 51.7 µM
- TGI [9]: > 10 µM
- TGI [3]: > 10 µM
- TGI [10]: 65.8 µM
- TGI [4]: 33.4 µM
- TGI [5]: > 100 µM
- TGI [6]: 59.8 µM
- TGI [7]: > 100 µM
- TGI [8]: > 100 µM

Structure (SMILES): CC(=O)/C=C(/C)[O-].CC(=O)/C=C(/C)[O-].CC(=O)[CH-]C(C)=O.CC(=O)[CH-]C(C)=O.[Zr+4]
- GI50 [2]: > 100 µM
- TGI [2]: > 100 µM
- GI50 [9]: > 100 µM
- TGI [9]: > 100 µM
- GI50 [4]: > 100 µM
- TGI [4]: > 100 µM
- GI50 [5]: > 100 µM
- TGI [5]: > 100 µM
- GI50 [6]: > 100 µM
- TGI [6]: > 100 µM
- GI50 [7]: > 100 µM
- TGI [7]: > 100 µM

Structure (SMILES): O=C(CC(=O)N1N=C(c2ccccc2)C(N=Nc2ccc(S(=O)(=O)CCOS(=O)(=O)O)cc2)C1=O)Nc1ccc(Cl)cc1 (configuration not stated)
- TGI [1]: > 100 µM
- TGI [2]: > 100 µM
- TGI [9]: > 100 µM
- TGI [3]: > 100 µM
- TGI [10]: > 100 µM
- TGI [4]: > 100 µM
- TGI [5]: > 100 µM
- TGI [7]: > 100 µM

Structure (SMILES): Cc1nc(N)c(N2CCN(S(=O)(=O)N(Cc3ccccc3)Cc3ccccc3)CC2)c(=O)[nH]1
- TGI [1]: 52.7 µM
- TGI [2]: 83.5 µM
- TGI [9]: 63.3 µM
- TGI [3]: > 100 µM
- TGI [10]: > 100 µM
- TGI [4]: 47.8 µM
- TGI [6]: 93.6 µM
- TGI [7]: 73.5 µM
- TGI [8]: > 100 µM

Structure (SMILES): NS(=O)(=O)c1nnc(NS(=O)(=O)c2cccc3cccnc23)s1
- TGI [1]: > 100 µM
- TGI [2]: > 100 µM
- TGI [3]: > 100 µM
- TGI [10]: > 100 µM
- TGI [4]: > 100 µM
- TGI [6]: > 100 µM
- TGI [7]: > 100 µM
- TGI [8]: > 100 µM

Structure (SMILES): COc1cc2c3c(n(C)c(=O)c2cc1OC)-c1cc2c(cc1/C3=C\CCCCl)OCO2
- GI50 [1]: 35.9 µM
- TGI [1]: > 100 µM
- GI50 [2]: 17.5 µM
- TGI [2]: 62.8 µM
- TGI [9]: > 100 µM
- TGI [3]: > 100 µM
- TGI [4]: 40.9 µM
- TGI [5]: > 100 µM
- TGI [6]: > 100 µM
- TGI [7]: > 100 µM
- TGI [8]: > 100 µM

Structure (SMILES): O=S(=O)(O)c1ccc(O)c(N=Nc2c(O)ccc3ccccc23)c1
- TGI [1]: > 100 µM
- TGI [2]: > 100 µM
- TGI [9]: > 100 µM
- TGI [10]: > 100 µM
- TGI [4]: > 100 µM
- TGI [5]: > 100 µM
- TGI [6]: > 100 µM
- TGI [7]: > 100 µM
- TGI [8]: > 100 µM

Structure (SMILES): CSc1ccc(N2C(=O)C3c4[nH]c5ccccc5c4C4CCC(C(C)(C)C)CC4C3C2=O)cc1 (configuration not stated)
- TGI [2]: 28.6 µM
- TGI [9]: > 100 µM
- TGI [10]: 42.9 µM
- TGI [4]: 31.9 µM
- TGI [5]: 40.4 µM
- TGI [6]: 24.9 µM
- TGI [7]: 45.4 µM
- TGI [8]: > 100 µM

Structure (SMILES): CCOP(=O)(OCC)C(Nc1ccc(Cl)cc1)c1ccc(F)cc1 (configuration not stated)
- TGI [1]: 91.4 µM
- TGI [2]: 48.2 µM
- TGI [9]: 62.9 µM
- TGI [10]: 88 µM
- TGI [4]: 53.9 µM
- TGI [5]: 49.7 µM
- TGI [6]: > 100 µM
- TGI [7]: 61.2 µM

Structure (SMILES): Cc1ccc2sc3c(NCCCN)nc4ccccc4c3c(=O)c2c1
- GI50 [1]: 1.87 µM
- TGI [1]: 3.39 µM
- GI50 [3]: 1.77 µM
- TGI [3]: 3.36 µM
- GI50 [10]: 1.84 µM
- TGI [10]: 3.66 µM
- GI50 [4]: 1.82 µM
- TGI [4]: 3.37 µM
- GI50 [6]: 2.16 µM
- TGI [6]: 4.69 µM
- GI50 [7]: 1.74 µM
- TGI [7]: 3.45 µM
- GI50 [8]: 1.79 µM
- TGI [8]: 3.54 µM

Structure (SMILES): Cc1ccc(/C=c2\c(=O)[nH]c3nc4ccccc4c(=O)n23)cc1
- TGI [1]: > 100 µM
- TGI [2]: > 100 µM
- TGI [3]: > 100 µM
- TGI [4]: > 100 µM
- TGI [5]: > 100 µM
- TGI [6]: > 100 µM
- TGI [7]: > 100 µM
- TGI [8]: 48.8 µM

Structure (SMILES): Cc1cc(N(CCC#N)CCC#N)ccc1/C(N=Nc1ccc(C(=O)O)cc1)=N\NC(=O)c1ccccc1
- TGI [1]: > 100 µM
- TGI [2]: > 100 µM
- TGI [9]: 41.2 µM
- TGI [3]: > 100 µM
- TGI [10]: > 100 µM
- TGI [4]: > 100 µM
- TGI [5]: 38.5 µM
- TGI [6]: > 100 µM
- TGI [7]: > 100 µM

Structure (SMILES): O=C(CC12C3C4C1C1C2C3C41CC(=O)NO)NO (configuration not stated)
- TGI [2]: > 100 µM
- TGI [9]: 88.7 µM
- TGI [10]: 94.3 µM
- TGI [4]: > 100 µM
- TGI [5]: 77.4 µM
- TGI [7]: > 100 µM
- TGI [8]: > 100 µM
